Values quoted from earlier work in patent publication US20090191287A1, “Mitigation of Inflammation-Related Injuries” (priority 2008, published 2009).

Tests used:
myocardium at risk = details: allopurinol-pretreated dogs, left anterior descending artery ligated; control group 23%
heart infarct = details: dogs pretreated with allopurinol; control dogs 40%
[1] = test system: high-risk coronary surgery patients; details: high-risk coronary surgery patients pretreated before operating; placebo 17%

In the case of Oc1ncnc2[nH]ncc12 [allopurinol], the “myocardium at risk destroyed (myocardial necrosis)” value (myocardium at risk) is given as 9%, the heart infarct size (heart infarct) is given as 22% and the mortality rate [1] is given as 4%.
